From paper PMC7998669, “7-(2-Anilinopyrimidin-4-yl)-1-benzazepin-2-ones Designed by a “Cut and Glue” Strategy Are Dual Aurora A/VEGF-R Kinase Inhibitors” (Molecules, 2021)

Columns and labels:
Assay in all cases: NCI cancer cell line screen (sulforhodamin B)
Format in all cases: cell-based
NCI-H522 = conditions: Homo sapiens; NCI-H522, NSCL; 48 h; read-out: log10 GI50 (converted)
Method: (§1) The new dual Aurora A/VEGF-R inhibitors 2e and 2n were selected by the National Cancer Institute for screening in its broad cancer cell line panel. The NCI in vitro assay is performed by incubation of cells with test compounds for 48 h and subsequent cell fixation with trichloroacetic acid. The pink dye sulforhodamin B is added, which binds to the proteins of the fixed cells. After washing and solubilizing the bound stain, the optical density is measured spectrophotometrically to determine the relative proliferation of treated and untreated cells.
(§2) Simultaneous inhibition of the Aurora A kinase and the VEGF-R2/3 receptor kinases may represent an interesting dual activity for the treatment of cancer. The National Cancer Institute selected the compounds 2e and 2n as representatives with particularly high inhibitory activity on the above kinases for testing in the IVCLS (in vitro cell line screening). In this screening, compounds are tested for antiproliferative activity on about 60 in vitro cultivated tumor cell lines. Based on this very broad screening on cell lines from nine tumor entities the general antiproliferative potency of compounds is determined. In addition, the bioinformatic tool COMPARE allowed one to draw conclusions on the molecular target of the compounds from the activity patterns on the different cell lines. Similar molecular mechanisms of action of two compounds are assumed if a Pearson correlation coefficient (PCC) of > 0.6 is calculated by COMPARE [52, 53]. […] The selectivity profile of the two compounds is not very pronounced given the overall very similar proliferation inhibition values across all cell lines. A COMPARE analysis determined a PCC = 0.61 for the patterns of test compounds 2e and 2n, which is consistent with an analogous mechanism of action. However, whether this mechanism is actually based on the inhibition of the inhibited Aurora kinases and VEGF receptor kinases cannot be deduced from these profiles.

SK-MEL-28 = conditions: Homo sapiens; SK-MEL-28, Melanoma; 48 h; read-out: log10 GI50 (converted)
Method: as §1, §2

CAKl-1 = conditions: Homo sapiens; CAKl-1, Renal; 48 h; read-out: log10 GI50 (converted)
Method: as §1, §2

HL-60(TB) = conditions: Homo sapiens, Leukemia, 48 h, read-out: log10 GI50 (converted)
Method: as §1, §2

NCI-H23 = conditions: Homo sapiens; NCI-H23, NSCL; 48 h; read-out: log10 GI50 (converted)
Method: as §1, §2

HS 578T = conditions: Homo sapiens, Breast, 48 h, read-out: log10 GI50 (converted)
Method: as §1, §2

UACC-257 = conditions: Homo sapiens; UACC-257, Melanoma; 48 h; read-out: log10 GI50 (converted)
Method: as §1, §2

RPMl-8226 = conditions: Homo sapiens; RPMl-8226, Leukemia; 48 h; read-out: log10 GI50 (converted)
Method: as §1, §2

RXF 393 = conditions: Homo sapiens; RXF 393, Renal; 48 h; read-out: log10 GI50 (converted)
Method: as §1, §2

A549/ATCC = conditions: Homo sapiens, NSCL, 48 h, read-out: log10 GI50 (converted)
Method: as §1, §2

SF-268 = conditions: Homo sapiens; SF-268, CNS; 48 h; read-out: log10 GI50 (converted)
Method: as §1, §2

LOX IMVI = conditions: Homo sapiens, Melanoma, 48 h, read-out: log10 GI50 (converted)
Method: as §1, §2

OVCAR-3 = conditions: Homo sapiens; OVCAR-3, Ovarian; 48 h; read-out: log10 GI50 (converted)
Method: as §1, §2

U0-31 = conditions: Homo sapiens; U0-31, Renal; 48 h; read-out: log10 GI50 (converted)
Method: as §1, §2

SK-OV-3 = conditions: Homo sapiens; SK-OV-3, Ovarian; 48 h; read-out: log10 GI50 (converted)
Method: as §1, §2

OVCAR-4 = conditions: Homo sapiens; OVCAR-4, Ovarian; 48 h; read-out: log10 GI50 (converted)
Method: as §1, §2

ACHN = conditions: Homo sapiens, Renal, 48 h, read-out: log10 GI50 (converted)
Method: as §1, §2

NCI-H460 = conditions: Homo sapiens; NCI-H460, NSCL; 48 h; read-out: log10 GI50 (converted)
Method: as §1, §2

U251 = conditions: Homo sapiens, U-251; U251, CNS; 48 h; read-out: log10 GI50 (converted)
Method: as §1, §2

SK-MEL-2 = conditions: Homo sapiens; SK-MEL-2, Melanoma; 48 h; read-out: log10 GI50 (converted)
Method: as §1, §2

NCI-H322M = conditions: Homo sapiens, NSCL, 48 h, read-out: log10 GI50 (converted)
Method: as §1, §2

IGROV1 = conditions: Homo sapiens, IGROV-1; IGROV1, Ovarian; 48 h; read-out: log10 GI50 (converted)
Method: as §1, §2

OVCAR-5 = conditions: Homo sapiens; OVCAR-5, Ovarian; 48 h; read-out: log10 GI50 (converted)
Method: as §1, §2

HOP-92 = conditions: Homo sapiens; HOP-92, NSCL; 48 h; read-out: log10 GI50 (converted)
Method: as §1, §2

MALME-3M = conditions: Homo sapiens, Melanoma, 48 h, read-out: log10 GI50 (converted)
Method: as §1, §2

UACC-62 = conditions: Homo sapiens; UACC-62, Melanoma; 48 h; read-out: log10 GI50 (converted)
Method: as §1, §2

HCT-116 = conditions: Homo sapiens; HCT-116, Colon; 48 h; read-out: log10 GI50 (converted)
Method: as §1, §2

TK-10 = conditions: Homo sapiens; TK-10, Renal; 48 h; read-out: log10 GI50 (converted)
Method: as §1, §2

SMILES	GI50 (NCI-H522) [µM]	GI50 (SK-MEL-28) [µM]	GI50 (CAKl-1) [µM]	GI50 (HL-60(TB)) [µM]	GI50 (NCI-H23) [µM]	GI50 (HS 578T) [µM]	GI50 (UACC-257) [µM]	GI50 (RPMl-8226) [µM]	GI50 (RXF 393) [µM]	GI50 (A549/ATCC) [µM]	GI50 (SF-268) [µM]	GI50 (LOX IMVI) [µM]	GI50 (OVCAR-3) [µM]	GI50 (U0-31) [µM]	GI50 (SK-OV-3) [µM]	GI50 (OVCAR-4) [µM]	GI50 (ACHN) [µM]	GI50 (NCI-H460) [µM]	GI50 (U251) [µM]	GI50 (SK-MEL-2) [µM]	also measured
O=C1CCCc2cc(-c3ccnc(Nc4ccc(O)cc4)n3)ccc2N1 [Compound 2e, 7-[2-(4-Hydroxyanilino)pyrimidin-4-yl]-1,3,4,5-tetrahydro-2H-1-benzazepin-2-one]	4.47	5.75	4.17	1.38	> 100	4.9	4.17	3.24	1.86	4.47	4.37	3.39	5.89	1.74	3.02	5.62	2.57	3.16	6.03	2.09	GI50 (NCI-H322M): 4.07 µM; GI50 (IGROV1): 2.51 µM; GI50 (OVCAR-5): 6.46 µM; GI50 (HOP-92): 6.61 µM; GI50 (MALME-3M): 2.19 µM; GI50 (UACC-62): 9.12 µM; GI50 (HCT-116): 3.63 µM; GI50 (TK-10): 3.8 µM
COc1ccc(Nc2nccc(-c3ccc4c(c3)CCCC(=O)N4)n2)cc1O [Compound 2n, 7-[2-(3-Hydroxy-4-methoxyanilino)pyrimidin-4-yl]-1,3,4,5-tetrahydro-2H-1-benzazepin-2-one]	10	9.12	5.62	3.16	11.7	2.14	14.8	5.25	2.69	7.94	7.41	5.5	10	3.02	5.25	7.59	4.17	4.68	10.2	9.12	GI50 (NCI-H322M): 30.9 µM; GI50 (IGROV1): 3.02 µM; GI50 (OVCAR-5): 8.71 µM; GI50 (HOP-92): 0.214 µM; GI50 (MALME-3M): > 100 µM; GI50 (UACC-62): 9.33 µM; GI50 (HCT-116): 3.8 µM; GI50 (TK-10): 23.4 µM
